Literature values as cited in US20120295320A1, “APPARATUS AND METHOD FOR TREATMENT OF MICROORGANISMS DURING PROPAGATION, CONDITIONING AND FERMENTATION USING STABILIZED CHLORINE DIOXIDE/SODIUM CHLORITE WITH HOPS ACID EXTRACTS” (RESONANT BIOSCIENCES, LLC, priority 2010, published 2012).

Test system: Weisella confusa
Conditions: background statement, fermentation mixture

## Virginiamycin
  concentration required to inhibit growth of Weisella confusa: over 25 mg/L
